US8951789B2, “Mammalian artificial chromosome vector comprising human cytochrome P450 gene (cluster) and non-human mammalian animal retaining the same” (National University Corporation Tottori University, priority 2007, dated 2015)

Experiments:
CYP3A/Cyp3a [1] = assay: Midazolam metabolites in mouse liver microsomes by LC-MS/MS; conditions: 10 μM midazolam
Description: (§1) In order to investigate whether or not a human-specific metabolite of midazolam, which is known to be metabolized by CYP3A/Cyp3a, is observed in the TC (CYP3A-HACΔ)/Δcyp mouse as in the case of a human, microsomes derived from the liver of the TC(CYP3A-HACΔ)/Δcyp mouse, the Δcyp mouse, the B6 normal mouse, and the human were allowed to react with midazolam, and mass analysis was carried out via LC-MS/MS in the following manner. […] The reaction was terminated with the addition of acetonitrile, the mixture was centrifuged at 3,000 rpm for 5 minutes, and the supernatant was separated. The solvent was removed therefrom by distillation under a nitrogen stream at 40° C., the dried extract was redissolved in acetonitrile, and mass analysis was carried out by LC-MS/MS

CYP3A/Cyp3a [2] = assay: Midazolam metabolites in human liver microsomes by LC-MS/MS; conditions: 10 μM midazolam, 37° C. 30 minutes
Description: as §1

CYP3A/Cyp3a expression = assay: Induction of CYP3A/Cyp3a expression by PCN, Western blot of liver microsome fractions
Description: In order to investigate the influence of pregnenolone 16α-carbonitrile (PCN) (Sigma), which is known as a substance inducing CYP3A/Cyp3a expression, on CYP3A/Cyp3a gene expression in TC(CYP3A-HACΔ)/Δcyp, Δcyp, and B6 normal mice, PCN was administered intraperitoneally for 4 days in amounts of 100 mg/kg per dose. A suspension of PCN in corn oil (Sigma) was prepared for administration.

Structure (SMILES)	human-specific metabolite (10.22) (CYP3A/Cyp3a [1]; TC(CYP3A-HACΔ)/Δcyp mouse liver microsomes, 37° C. 30 minutes)	main metabolite (10.62) (CYP3A/Cyp3a [1]; all microsomes (TC(CYP3A-HACΔ)/Δcyp, Δcyp, B6 normal mouse, human))	human-specific metabolite (10.22) (CYP3A/Cyp3a [2])	CYP3A expression level compared with corn oil mice of the same strain (CYP3A/Cyp3a expression; B6 normal mice, 100 mg/kg intraperitoneally for 4 days, liver on day 5)	CYP3A expression (CYP3A/Cyp3a expression; mouse, in vivo, ip, 100 mg/kg)	CYP3A expression level compared with corn oil mice of the same strain (CYP3A/Cyp3a expression; mouse, in vivo, ip, 100 mg/kg)	metabolic activity (triazolam hydroxylation) of liver microsomes, PCN-administered versus corn oil-administered mice (CYP3A4)
Cc1ncc2n1-c1ccc(Cl)cc1C(c1ccccc1F)=NC2 [midazolam]	detected	detected in all microsomes	detected				
CC(=O)[C@H]1[C@H](C#N)C[C@H]2[C@@H]3CC=C4C[C@@H](O)CC[C@]4(C)[C@H]3CC[C@@]21C [PCN, pregnenolone 16α-carbonitrile]				elevated	not observed	elevated	10 times
